According to patent US10681909B2, “Herbicidal triazoles” (FMC Corporation, priority 2014, dated 2020):

Columns and labels:
[1] = test system: pigweed; assay: Test A preemergence; format: in vivo, Amaranthus retroflexus; conditions: 0 to 100 scale (0 no effect, 100 complete control)
Description: (§1) Seeds of plant species selected from barnyardgrass (Echinochloa crus-galli), crabgrass, large (large crabgrass, Digitaria sanguinalis), kochia (Kochia scoparia), ragweed (common ragweed, Ambrosia elatior), foxtail, giant (giant foxtail, Setaria faberii), morningglory (Ipomoea spp.), pigweed (Amaranthus retroflexus), velvetleaf (Abutilon theophrasti), ryegrass, Italian (Italian ryegrass, Lolium multiflorum), wheat (Triticum aestivum), and corn (Zea mays) were planted into a blend of loam soil and sand and treated preemergence with a directed soil spray using test chemicals formulated in a non-phytotoxic solvent mixture which included a surfactant. At the same time, plants selected from these crop and weed species and also blackgrass (Alopecurus myosuroides), and galium (catchweed bedstraw, Galium aparine), were planted in pots containing the same blend of loam soil and sand and treated with postemergence applications of test chemicals formulated in the same manner. Plants ranged in height from 2 to 10 cm and were in the one- to two-leaf stage for the postemergence treatment. […] A dash (-) response means no test result.

[2] = test system: barnyardgrass; assay: Test A postemergence; format: in vivo, Echinochloa crus-galli; conditions: 0 to 100 scale (0 no effect, 100 complete control), approx. 10 d
Description: as §1

[3] = test system: velvetleaf; assay: Test A preemergence; format: in vivo, Abutilon theophrasti; conditions: 0 to 100 scale (0 no effect, 100 complete control)
Description: as §1

[4] = test system: barnyardgrass; assay: Test B flooded paddy test; format: in vivo, Echinochloa crus-galli; conditions: applied to paddy water at 2-leaf stage, visual rating after 13 to 15 d, scale 0 (no effect) to 100 (complete control)
Description: (§2) At time of treatment, test pots were flooded to 3 cm above the soil surface, treated by application of test compounds directly to the paddy water, and then maintained at that water depth for the duration of the test. Treated plants and controls were maintained in a greenhouse for 13 to 15 d, after which time all species were compared to controls and visually evaluated. […] A dash (-) response means no test result.

[5] = test system: foxtail, giant; assay: Test A preemergence; format: in vivo, Setaria faberii; conditions: 0 to 100 scale (0 no effect, 100 complete control)
Description: as §1

[6] = test system: foxtail, giant; assay: Test A postemergence; format: in vivo, Setaria faberii; conditions: 0 to 100 scale (0 no effect, 100 complete control), approx. 10 d
Description: as §1

[7] = test system: ducksalad; assay: Test B flooded paddy test; format: in vivo, Heteranthera limosa; conditions: applied to paddy water at 2-leaf stage, visual rating after 13 to 15 d, scale 0 (no effect) to 100 (complete control)
Description: as §2

[8] = test system: sedge, umbrella; assay: Test B flooded paddy test; format: in vivo, Cyperus difformis; conditions: applied to paddy water at 2-leaf stage, visual rating after 13 to 15 d, scale 0 (no effect) to 100 (complete control)
Description: as §2

[9] = test system: wheat; assay: Test A postemergence; format: in vivo, Triticum aestivum; conditions: 0 to 100 scale (0 no effect, 100 complete control), approx. 10 d
Description: as §1

[10] = test system: crabgrass, large; assay: Test A postemergence; format: in vivo, Digitaria sanguinalis; conditions: 0 to 100 scale (0 no effect, 100 complete control), approx. 10 d
Description: as §1

[11] = test system: wheat; assay: Test A preemergence; format: in vivo, Triticum aestivum; conditions: 0 to 100 scale (0 no effect, 100 complete control)
Description: as §1

[12] = test system: rice; assay: Test B flooded paddy test; format: in vivo, Oryza sativa; conditions: applied to paddy water at 2-leaf stage, visual rating after 13 to 15 d, scale 0 (no effect) to 100 (complete control)
Description: as §2

[13] = test system: barnyardgrass; assay: Test A preemergence; format: in vivo, Echinochloa crus-galli; conditions: 0 to 100 scale (0 no effect, 100 complete control)
Description: as §1

[14] = test system: morningglory; assay: Test A postemergence; format: in vivo, Ipomoea spp.; conditions: 0 to 100 scale (0 no effect, 100 complete control), approx. 10 d
Description: as §1

[15] = test system: pigweed; assay: Test A postemergence; format: in vivo, Amaranthus retroflexus; conditions: 0 to 100 scale (0 no effect, 100 complete control), approx. 10 d
Description: as §1

[16] = test system: crabgrass, large; assay: Test A preemergence; format: in vivo, Digitaria sanguinalis; conditions: 0 to 100 scale (0 no effect, 100 complete control)
Description: as §1

[17] = test system: morningglory; assay: Test A preemergence; format: in vivo, Ipomoea spp.; conditions: 0 to 100 scale (0 no effect, 100 complete control)
Description: as §1

[18] = test system: corn; assay: Test A postemergence; format: in vivo, Zea mays; conditions: 0 to 100 scale (0 no effect, 100 complete control), approx. 10 d
Description: as §1

[19] = test system: velvetleaf; assay: Test A postemergence; format: in vivo, Abutilon theophrasti; conditions: 0 to 100 scale (0 no effect, 100 complete control), approx. 10 d
Description: as §1

[20] = test system: corn; assay: Test A preemergence; format: in vivo, Zea mays; conditions: 0 to 100 scale (0 no effect, 100 complete control)
Description: as §1

Row | Compound | Plant response rating, Pigweed ([1]; 125 g ai/ha) | Plant response rating, Pigweed ([1]; 500 g ai/ha, approx. 10 d) | Plant response rating, Barnyardgrass ([2]; 125 g ai/ha) | Plant response rating, Barnyardgrass ([2]; 500 g ai/ha) | Plant response rating, Velvetleaf ([3]; 125 g ai/ha) | Plant response rating, Velvetleaf ([3]; 500 g ai/ha, approx. 10 d) | Plant response rating, Foxtail, Giant ([5]; 125 g ai/ha) | Plant response rating, Foxtail, Giant ([5]; 500 g ai/ha, approx. 10 d) | Plant response rating, Foxtail, Giant ([6]; 125 g ai/ha) | Plant response rating, Foxtail, Giant ([6]; 500 g ai/ha) | Plant response rating, Wheat ([9]; 125 g ai/ha) | Plant response rating, Wheat ([9]; 500 g ai/ha) | Plant response rating, Crabgrass, Large ([10]; 125 g ai/ha) | Plant response rating, Crabgrass, Large ([10]; 500 g ai/ha) | Plant response rating, Wheat ([11]; 125 g ai/ha) | Plant response rating, Wheat ([11]; 500 g ai/ha, approx. 10 d) | Plant response rating, Barnyardgrass ([13]; 125 g ai/ha) | Plant response rating, Barnyardgrass ([13]; 500 g ai/ha, approx. 10 d) | Plant response rating, Morningglory ([14]; 125 g ai/ha) | Plant response rating, Morningglory ([14]; 500 g ai/ha) | further results
1 | CSc1nc(-c2ccc(F)cc2)nn1Cc1ccnc(C(F)(F)F)c1 [Compound 21] | 10 | 90 | 0 | 10 | 0 | 0 | 0 | 60 | 10 | 20 | 0 | 10 | 20 | 20 | 0 | 0 | 0 | 0 | 20 | 30 | Plant response rating, Barnyardgrass, Flood ([4]; 250 g ai/ha): 80; Plant response rating, Ducksalad, Flood ([7]; 250 g ai/ha): 95; Plant response rating, Sedge, Umbrella, Flood ([8]; 250 g ai/ha): 90; Plant response rating, Rice, Flood ([12]; 250 g ai/ha): 25; Plant response rating, Pigweed ([15]; 125 g ai/ha): 30; Plant response rating, Pigweed ([15]; 500 g ai/ha): 80; Plant response rating, Crabgrass, Large ([16]; 125 g ai/ha): 10; Plant response rating, Crabgrass, Large ([16]; 500 g ai/ha, approx. 10 d): 80; Plant response rating, Morningglory ([17]; 125 g ai/ha): 0; Plant response rating, Morningglory ([17]; 500 g ai/ha, approx. 10 d): 0; Plant response rating, Corn ([18]; 125 g ai/ha): 10; Plant response rating, Corn ([18]; 500 g ai/ha): 20; Plant response rating, Velvetleaf ([19]; 125 g ai/ha): 10; Plant response rating, Velvetleaf ([19]; 500 g ai/ha): 20; Plant response rating, Corn ([20]; 125 g ai/ha): 0; Plant response rating, Corn ([20]; 500 g ai/ha, approx. 10 d): 0
2 | Cc1nc(-c2ccc(C(F)(F)F)cc2)nn1Cc1ccnc(C(F)(F)F)c1 [Compound 7] | 90 | 100 | 40 | 80 | 20 | 70 | 80 | 100 | 60 | 90 | 20 | 50 | 50 | 90 | 0 | 10 | 20 | 80 | 50 | 80 | Plant response rating, Barnyardgrass, Flood ([4]; 250 g ai/ha): 0; Plant response rating, Ducksalad, Flood ([7]; 250 g ai/ha): 0; Plant response rating, Sedge, Umbrella, Flood ([8]; 250 g ai/ha): 85; Plant response rating, Rice, Flood ([12]; 250 g ai/ha): 0; Plant response rating, Pigweed ([15]; 125 g ai/ha): 100; Plant response rating, Pigweed ([15]; 500 g ai/ha): 100; Plant response rating, Crabgrass, Large ([16]; 125 g ai/ha): 90; Plant response rating, Crabgrass, Large ([16]; 500 g ai/ha, approx. 10 d): 100; Plant response rating, Morningglory ([17]; 125 g ai/ha): 10; Plant response rating, Morningglory ([17]; 500 g ai/ha, approx. 10 d): 60; Plant response rating, Corn ([18]; 125 g ai/ha): 30; Plant response rating, Corn ([18]; 500 g ai/ha): 50; Plant response rating, Velvetleaf ([19]; 125 g ai/ha): 80; Plant response rating, Velvetleaf ([19]; 500 g ai/ha): 100; Plant response rating, Corn ([20]; 125 g ai/ha): 10; Plant response rating, Corn ([20]; 500 g ai/ha, approx. 10 d): 10
3 | CCCn1nc(-c2ccc(F)cc2)nc1C(O)c1ccnc(C(F)(F)F)c1 (stereo not drawn) [Compound 16] | 80 | 100 | 0 | 70 | 0 | 20 | 50 | 90 | 30 | 70 | 10 | 30 | 20 | 70 | 0 | 0 | 0 | 80 | 40 | 40 | Plant response rating, Barnyardgrass, Flood ([4]; 125 g ai/ha): 0; Plant response rating, Ducksalad, Flood ([7]; 125 g ai/ha): 0; Plant response rating, Sedge, Umbrella, Flood ([8]; 125 g ai/ha): 0; Plant response rating, Rice, Flood ([12]; 125 g ai/ha): 0; Plant response rating, Pigweed ([15]; 125 g ai/ha): 100; Plant response rating, Pigweed ([15]; 500 g ai/ha): 100; Plant response rating, Crabgrass, Large ([16]; 125 g ai/ha): 60; Plant response rating, Crabgrass, Large ([16]; 500 g ai/ha, approx. 10 d): 100; Plant response rating, Morningglory ([17]; 125 g ai/ha): 0; Plant response rating, Morningglory ([17]; 500 g ai/ha, approx. 10 d): 20; Plant response rating, Corn ([18]; 125 g ai/ha): 10; Plant response rating, Corn ([18]; 500 g ai/ha): 50; Plant response rating, Velvetleaf ([19]; 125 g ai/ha): 0; Plant response rating, Velvetleaf ([19]; 500 g ai/ha): 40; Plant response rating, Corn ([20]; 125 g ai/ha): 0; Plant response rating, Corn ([20]; 500 g ai/ha, approx. 10 d): 0
